Results published in patent US20070213359A1 (ACADIA Pharmaceuticals Inc., priority 2005, published 2007).
Where two headings read alike, the source gives them in different places.

Key:
[1] = molecular target: T1, Ghrelin receptor (Homo sapiens, UniProt Q92847); assay: Aeg; assay type: cell-based
Target sequence in this assay (Q92847 whole entry): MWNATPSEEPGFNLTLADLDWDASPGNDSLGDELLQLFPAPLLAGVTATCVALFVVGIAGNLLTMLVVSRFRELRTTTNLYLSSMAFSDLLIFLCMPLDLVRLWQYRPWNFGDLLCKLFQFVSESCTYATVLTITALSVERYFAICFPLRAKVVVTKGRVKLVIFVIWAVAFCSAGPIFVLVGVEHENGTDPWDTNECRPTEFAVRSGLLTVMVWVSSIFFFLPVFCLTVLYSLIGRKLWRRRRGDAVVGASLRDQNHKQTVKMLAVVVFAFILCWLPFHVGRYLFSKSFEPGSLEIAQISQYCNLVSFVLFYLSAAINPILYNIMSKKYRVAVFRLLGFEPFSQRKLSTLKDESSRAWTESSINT

[2] = molecular target: T1, Ghrelin receptor; assay: Receptor Selection and Amplification Technology (R-SAT) assay; assay type: cell-based; design: expressed in transfected cells; host or cells: NIH3T3; settings: for IC50: '—' not defined (nd used separately), read-out: RSAT pIC50 (converted); for Emax: read-out: RSAT Eff(%)
Target sequence in this assay (Q92847 whole entry): as above

[3] = molecular target: T2, GHSR1a receptor (Homo sapiens, UniProt Q92847); assay: 125I-Ghrelin binding assay; settings: displacement of 125I-ghrelin (0.053 nM), membranes of HEK293 cells transfected with GHSR1a, Cheng-Prussoff, '—' not defined
T2 construct: expressed in transfected cells; host or cells: HEK293 (membranes)
T2 sequence (Q92847 whole entry): as above

[4] = tested on: fasted, male Sprague-Dawley rats; assay: Suppression of acute feeding response in fasted rats; assay type: in vivo, rat; settings: intraperitoneal, 30 mg/kg
[5] = molecular target: T1, Ghrelin receptor; assay: pIC50; design: expressed in transfected cells; host or cells: NIH3T3
Excerpt: Table printed on a drawing sheet, Figure 1
First copying reader's note: The table stands under a dose-response plot; chemical names broken over two lines at a hyphen are joined by a blank.
Target sequence in this assay (Q92847 whole entry, looked up): as the sequence (Q92847 whole entry) above

[6] = negative logarithm of ligand concentration causing 50% inhibition of constitutive receptor response, transfected NIH3T3 cells
[7] = percent inhibition at saturating ligand, normalized to reference ligand Substance P analog = 100%
[8] = read-out: Binding pKi (converted)

For `COc1cccc2c(C(=O)c3ccccc3)cn(CCCN3CCC(c4nc5ccccc5s4)CC3)c12`, the IC50 [1] was 63.1 nM, the IC50 ([2]; […]) was 0.2 nM and the Emax [2] was 107%. The Ki ([3]; Binding pKi) was 39.8 nM.
Work on `COc1cccc2c(C(=O)C3CC3)cn(CCCN3CCC(Oc4ccc(F)cc4)CC3)c12` yielded an IC50 [1] of 39.8 nM, an IC50 ([2]; […]) of 0.398 nM and an Emax [2] of 101%. The Ki ([3]; Binding pKi) was 50.1 nM.
In the case of `CCCCC1CCN(CCCn2cc(C(C)=O)c3ccccc32)CC1` [1-(1-(3-(4-butylpiperidin-1-yl)propyl)-1H-indol-3-yl)ethanone], the suppression of feeding [4] is reported as “Robust suppression of feeding” and the IC50 [5] is reported as 158 nM.
Work on `COc1cccc2c(C(=O)NCC(C)C)cn(CCCN3CCC(c4nc5ccccc5s4)CC3)c12` [drawing 234] yielded an IC50 ([2]; […]) of 1.58 nM, an Emax [2] of 106% and a Ki ([3]; Binding pKi) of 1000 nM.
`CC(=O)c1cn(CCCN2C3CCC2CC(CCc2ccccc2)C3)c2ccccc12` (centres unmarked) [drawing 267] showed an IC50 [2, 6] of 5.01 nM, an Emax [2, 7] of 105% and a Ki [3, 8] of 316 nM.
In the case of `COc1cccc2c(C(C)=O)cn(CCCN3CCC(Oc4ccc(Cl)cc4)CC3)c12` [drawing 276], the IC50 ([2]; […]) is reported as 5.01 nM, the Emax [2] is reported as 144% and the Ki [3, 8] is reported as 200 nM.
In the case of `COc1cccc2c(C(C)=O)cn(CCCN3CCC(c4nc5ccccc5s4)CC3)c12` [drawing 280], the IC50 [2, 6] is reported as 6.31 nM, the “RSAT Eff(%)” value [2, 7] is reported as 128% and the Ki [3, 8] is reported as 398 nM.
`COc1cccc2c(C(C)=O)cn(CCCN3CCC(Oc4ccc(Cl)cc4)CC3)c12` [drawing 300] was tested, and the IC50 [2, 6] was 7.94 nM, the “RSAT Eff(%)” value [2, 7] was 129% and the Ki [3, 8] was 126 nM.
`COc1cccc2c(C(C)=O)cn(CCCN3CCC(c4nc5ccccc5s4)CC3)c12` [drawing 310] gave an IC50 ([2]; […]) of 10 nM, an Emax [2] of 102% and a Ki [3, 8] of 158 nM.
`CCCOC1CCN(CCCn2cc(C(C)=O)c3cccc(OC)c32)CC1` [drawing 333] showed an IC50 [2, 6] of 15.8 nM, an Emax [2, 7] of 112% and a Ki [3, 8] of 2000 nM.
For `CC(=O)c1cn(CCCN2C3CCC2CC(CCc2ccccc2)C3)c2ccccc12` (centres unmarked) [drawing 433], the IC50 [2, 6] was 63.1 nM, the “RSAT Eff(%)” value [2, 7] was 96% and the Ki [3, 8] was 1580 nM.
For `CC(=O)c1cn(CCCN2CCC(Oc3ccc(F)cc3)CC2)c2ccccc12` [drawing 551], the IC50 [2, 6] was 398 nM, the “RSAT Eff(%)” value [2, 7] was 96% and the Ki [3, 8] was 2000 nM.
In the case of `COc1ccccc1C1CCN(CCCn2cc(C(C)=O)c3ccccc32)CC1` [drawing 576], the IC50 [2, 6] is reported as 501 nM, the “RSAT Eff(%)” value [2, 7] is reported as 106% and the Ki [3, 8] is reported as 1260 nM.
With `CCCCC1CCN(CCCn2cc(C(C)=O)c3ccccc32)CC1` [drawing 584] the IC50 ([2]; […]) was 631 nM, the Emax [2] was 77% and the Ki ([3]; Binding pKi) was 3980 nM.
In the case of `CC(=O)c1cn(CCCN2CCC(Oc3ccccc3Cl)CC2)c2ccccc12` [drawing 599], the “RSAT Eff(%)” value [2, 7] is reported as 116% and the Ki [3, 8] is reported as 2510 nM.
`O=C(NCc1cccc(Cl)c1)c1cn(CCCN2CCC(Oc3ccc(F)cc3)CC2)c2ccccc12` [drawing 659] was tested, and the “RSAT Eff(%)” value [2] was 67% and the Ki [3, 8] was 1580 nM.
